Earlier results on 2 molecules are cited in paper PMC6237330, “Bioactivity of selected materials for coffee substitute” (PLoS ONE, 2018).

The subject of one data set is mice. The arrangement: method as in PMID 20237914. The note with it: 2 mg furan/kg bwt.
Another data set relates to animals. The arrangement: method as in earlier work. The note with it: in the laboratory.

Consider `c1ccoc1` [furan], for which the Tumor induction result with mice was “may induce tumor”. As to `C=CC(N)=O` [ACR, acrylamide], in the data set on animals, the Tumors in animals result was “causes tumors in animals”.
